Source: patent US6352993B1, “Pyrimidine derivatives and processes for the preparation thereof” (Yuhan Corporation, priority 1997, dated 2002)
Structures can show the parent of a compound that is named as a salt.

Tests used:
[1] = test system: gastric secretion in pylorus-ligated Sprague-Dawly rats; experiment: Inhibition of gastric secretion (pylorus-ligated rats, Shay method); format: in vivo; conditions: 20 mg/kg intraduodenally, 5 hours; for Relative conc.: gastric juice acidity relative to omeprazole, equation (II); for Relative volume: gastric juice amount relative to omeprazole, equation (I); for Relative Acid Output: total acid output relative to omeprazole, equation (III)
Method: Test 2: Inhibition of gastric secretion
In accordance with the method disclosed in Shay, H., et al., Gastroenterology 5 43-61(1945), Test 2 was carried out.
Sprague-Dawly rats having a body weight of 170±10 g were divided into 3 groups(n=5) and deprived of food for 24 hours before the experiment with free access to water. Under ether anesthesia, the abdomen was incised, and the pylorus was ligated. As a comparative group, Group 1 was administered intraduodenally in a volume of 0.5 ml/200 g of 30% aqueous polyethylene glycol 400 solution. Groups 2 and 3 were administered intraduodenally with the compound of Example and omeprazole, respectively, each of which was suspended in 30% aqueous polyethylene glycol 400 solution at a concentration of 20 mg/kg. After closing the abdominal cavity, the rats were placed for 5 hours and then killed by cervical dislocation. The stomach was extracted to obtain gastric juice.
Tne gastric juice was centrifuged at 1,000 g to remove precipitates. The amount and acidity of the gastric juice were measured. Relative volumes, relative acid concentrations and relative acid outputs of the test compounds were calculated from equations(I), (II) and (III) and the results are shown in Table 2.
Relative volume=(the average amount of gastric juice of Group 1—the average amount of gastric juice of Group 2)/(the average amount of gastric juice of Group 1−the average amount of gastric juice of Group 3)—(I)
Relative acid concerntration=(the average acidity of Group 1—the average acidity of Group 2)/(the average acidity of Group 1—the average acidity of Group 3)—(II)
Relative acid output (the total amount of acid output of Group 1—the total amount of acid output of Group 2)/(the total amount of acid output of Group 1—the total amount of acid output of Group 3)—(m)

[2] = biological target: proton pump (H+/K+-ATPase) (UniProt P19156); experiment: Inhibition of proton pump (H+/K+-ATPase activity); format: biochemical; design: Effect ratio; conditions: relative to omeprazole IC50
Method: (§1) Test 1: Inhibition of proton pump (H^+/K^+-ATPase activity)
(§2) A proton pump enzyme was prepared by the same method as in the Experiment 1-1 of WO 94/14795. Further, the inhibitory effect of proton pump activity was measured by the same method as in Experiment 1-2 of WO 94/14795.
(§3) Namely, the proton pump activity stimulated by Mg^++ was used as a negative comparative group, and the activity stimulated by Mg^++ and K^+ was used as a positive comparative group. The comparative compound was omeprazole.
(§4) Test tubes were divided into 4 groups: Group 1 as negative comparative group(n=3), Group 2 as positive comparative group(n=3), Group 3(n=5×2) to be administered with the compound of the present invention and Group 4(n=5×2) to be administered with the comparative compound.
(§5) The inhibitory effects of Groups 3 and 4 on proton pump activity were measured by employing the compound prepared in Examples and omeprazole, respectively, each of which was dissolved in dimethylsulfoxide at 5 different concentrations.
(§6) To each of Groups 1, 2, 3 and 4 were added 100 μl of magnesium chloride(40 mM) dissolved in 40 mM Tris-HCI buffer(ph 6.0) and 100 μg of the enzyme source. The 50 μl of potassium chloride(50 mM) and 50 μl of ammonium chloride(6 mM) dissolved in 40 mM Tris-HCl buffer(pH 6.0) were added to all groups except for group 1.
(§7) 10 μl of dimethylsulfoxide was added to each of Groups 1 and 2; and to Group 3 was added 10 μl of dimethylsulfoxide solution prepared by dissolving compound of EXAMPLE at 5 different concentration(n=5×2). To Group 4, 10 μl of the solution prepared by dissolving omeprazole in dimethylsulfoxide at 5 different concentration(37.6, 21.4, 12.2, 7.0 and 4.0 μM) was added(n=5×2). 40 mM Tris-HCI buffer(pH=6.0) was added thereto so as to make the total volume 400 μl.
(§8) Thereafter, the test tube of each Group were placed at 37° C. for 30 minutes for the preincubation. 100 μl ATP solution (6.6 mM) was added until the reaction volume became 500 μl. After the reaction was carried out at 37° C. for 30 minutes, 25% cold trichloroacetic acid was added to terminate the enzyme reaction. The released inorganic phosphate was measured by an automatic analyzer(Express 550, coming).
(§9) The difference between Group 1 and Group 2 represents the proton pump activity activated by K^+ only. The IC50s of Group 3 and 4 were calculated from Litchfield-wilcoxon equation[see, e.g., J. Pharrnacol. Exp. Ther., 96, 99(1949)]. The concentrations of the test compounds inhibiting 50% of the proton pump activity are represented as IC50 in Table 1.

[3] = biological target: proton pump (H+/K+-ATPase) (UniProt P19156); experiment: Inhibition of proton pump (H+/K+-ATPase activity); format: biochemical; design: other: K+-stimulated proton pump activity, pH 6.0, 37°; conditions: K+-stimulated proton pump activity, pH 6.0, 37° C., 30 minutes preincubation; read-out: IC50 (concentration inhibiting 50% of the proton pump activity)
Method: as §1, §2, §3, §4, §5, §6, §7, §8, §9

| SMILES | Relative conc. [1] | Relative volume [1] | Relative Acid Output [1] | Effect ratio [2] | IC50 [3] [µM] |
| --- | --- | --- | --- | --- | --- |
| COCCNc1nc(C)c(C)c(N2CCc3ccccc3C2)n1.Cl [Example 5, 5,6-dimethyl-2-(2-methoxyethylamino)-4-(1,2,3,4-tetrahydroisoquinolin-2-yl)pyrimidine hydrochloride] | 0.18 | 0.45 | 0.43 | 1.6 | 6.91 |
| Cc1c(COC(=O)C2CC2)nc(Nc2ccc(F)cc2)nc1N1CCc2ccccc2C1C (stereo not shown) [Example 54, 5-methyl-6-cyclopropylcarbonyloxymethyl-2-(4-fluorophenylamino)-4-(1-methyl-1,2,3,4-tetrahydroisoquinolin-2-yl)pyrimidine] | 0.79 | 0.79 | 0.95 | – | – |
| Cc1c(CO)nc(Nc2ccccc2)nc1N1CCc2ccccc2C1C.Cl (stereo not shown) [Example 32, 6-hydroxymethyl-5-methyl-2-phenylamino-4-(1-methyl-1,2,3,4-tetrahydroisoquinolin-2-yl)pyrimidine hydrochloride] | 0.47 | 0.84 | 0.77 | 8.3 | 1.34 |
| Cc1csc(Nc2nc(C)c(C)c(N3CCc4ccccc4C3C)n2)n1.Cl (stereo not shown) [Example 22, 5,6-dimethyl-2-(4-methylthiazol-2-yl)amino-4-(1-methyl-1,2,3,4-tetrahydroisoquinolin-2-yl)pyrimidine hydrochloride] | 0.46 | 0.59 | 0.62 | 1.7 | 6.69 |
| C=CCNc1nc(C)c(C)c(N2CCc3ccccc3C2)n1 [Example 2, 5,6-dimethyl-2-(3-allylamino)-4-(1,2,3,4-tetrahydroisoquinolin-2-yl)pyrimidine hydrochloride] | 0.57 | 0.69 | 0.70 | 1.4 | 7.85 |
| Cc1nc(NCC(C)C)nc(N2CCc3ccccc3C2C)c1C (stereo not shown) [Example 14, 5,6-dimethyl-2-isobutylamino-4-(1-methyl-1,2,3,4-tetrahydroisoquinolin-2-yl)pyrimidine] | 0.41 | 0.93 | 0.79 | 5.2 | 2.15 |
| COc1ccc2[nH]c([S+]([O-])Cc3ncc(C)c(OC)c3C)nc2c1 (stereo not shown) [Omeprazole, omeprazole, reference compound] | – | – | – | – | 11.1 |
| Cc1c(COC(=O)CNC(=O)OC(C)(C)C)nc(Nc2ccc(F)cc2)nc1N1CCc2ccccc2C1C (stereo not shown) [Example 139, 5-methyl-6-(N-t-butoxycarbonyl-glycyloxymetyl)-2-(4-fluorophenylamino)-4-(1-methyl-1,2,3,4-tetrahydroisoquinolin-2-yl)pyrimidine] | 0.75 | 1.01 | 1.01 | – | – |
| Cc1c(COC(=O)[C@@H](N)Cc2ccccc2)nc(Nc2ccc(F)cc2)nc1N1CCc2ccccc2C1C.Cl.Cl (stereo partly shown) [Example 172, 5-methyl-6-(phenylalanyloxymethyl)-2-(4-fluorophenylamino)-4-(1-methyl-1,2,3,4-tetrahydroisoquinolin-2-yl)pyrimidine dihydrochloride] | 1.33 | 1.48 | 1.34 | – | – |
| Cc1c(COC(=O)CN2CCOCC2)nc(Nc2ccc(F)cc2)nc1N1CCc2ccccc2C1C.Cl.Cl (stereo not shown) [Example 175, 5-methyl-6-(4-morpholineacetoxymethyl)-2-(4-fluorophenylamino)-4-(t1-methyl-1,2,3,4tetrahydroisoquinolin-2-yl)pyrimidine dihydrochloride] | 0.30 | 0.87 | 0.79 | – | – |
| Cc1c(COC(=O)CN2CCCCC2)nc(Nc2ccc(F)cc2)nc1N1CCc2ccccc2C1C.Cl.Cl (stereo not shown) [Example 181, 5-rethyl-6-(1-piperidineacetoxymethyl)-2-(4-fluorophenylamino)-4-(1-methyl-1,2,3,4-tetrahydroisoquinolin-2-yl)pyrimidine dihydrochloride] | 0.16 | 0.99 | 0.80 | – | – |
| Cc1c(COC(=O)[C@@H](N)C(C)C)nc(Nc2ccc(F)cc2)nc1N1CCc2ccccc2C1C.Cl.Cl (stereo partly shown) [Example 171, 5-methyl-6-valyloxymethyl-2-(4-fluorophenylamino)-4-(1-methyl-1,2,3,4-tetrahydroisoquinolin-2-yl)pyrimidine dibydrochloride] | 1.42 | 1.46 | 1.33 | – | – |
| Cc1c(COC(=O)C(C)C)nc(Nc2ccc(F)cc2)nc1N1CCc2ccccc2C1C (stereo not shown) [Example 52, 5-methyl-6-isopropylcarbonyloxymethyl-2-(4-fluorophenylamino)-4-(1-methyl-1,2,3,4-tetrahydroisoquinolin-2-yl)pyrimidine] | 0.88 | 0.86 | 0.96 | – | – |
| Cc1nc(Nc2ccc(F)cc2)nc(N2CCc3cc(OC(=O)c4ccc([N+](=O)[O-])cc4)ccc3C2C)c1C (stereo not shown) [Example 107, 5,6-diinethyl-2-(4-fluorophenylamino)-4-{1-methyl-6-(4-nitrobenzoyloxy)-1,2,3,4-tetrahydroisoquinolin-2-yl}pyrimidine] | 0.56 | 0.62 | 0.73 | – | – |
| CC(=O)OCc1nc(Nc2ccc(F)cc2)nc(N2CCc3ccccc3C2C)c1C (stereo not shown) [Example 50, 5-methyl-6-acetoxymethyl-2-(4-fluorophenylamino)-4-(1-methyl-1,2,3,4-tetrahydroisoquinolin-2-yl)pyrimidine] | 0.77 | 1.01 | 0.98 | – | – |
| CCC(=O)OCc1nc(Nc2ccc(F)cc2)nc(N2CCc3ccccc3C2C)c1C (stereo not shown) [Example 51, 5-methyl-6-ethylcarbonyloxymethyl-2-(4-fluorophenylamino)-4-(1-methyl-1,2,3,4-tetrahydroisoquinolin-2-yl)pyrimidine] | 1.02 | 1.09 | 1.06 | – | – |
| Cc1nc(Nc2ccc(F)cc2)nc(N2CCc3c(O)ccc(O)c3C2C)c1C.Cl (stereo not shown) [Example 43, 5,6-dimethyl-2-(4-fluorophenylamino)-4-(5,8-dihydroxy-1-methyl-1,2,3,4-tetrahydroisoquinolin-2-yl)pyrimidine hydrochloride] | – | – | – | 61.7 | 0.18 |
| Cc1c(COC(=O)C(Cc2cn(Cc3ccccc3)cn2)NC(=O)OC(C)(C)C)nc(Nc2ccc(F)cc2)nc1N1CCc2ccccc2C1C (stereo not shown) [Example 144, 5-methyl-6-(N-t-butoxycarbonyl-Im-benzyl-histidyloxymethyl)-2-(4-fluorophenylamino)-4-(1-methyl-1,2,3,4-tetrahydroisoquinolin-2-yl)pyrimidine] | 0.80 | 0.90 | 0.94 | – | – |
